Test results: article PMC9783573, “Introduction of a SiFA Moiety into the D-Glutamate Chain of DOTA-PP-F11N Results in Radiohybrid-Based CCK-2R-Targeted Compounds with Improved Pharmacokinetics In Vivo” (Pharmaceuticals, 2022)
Non-standard residues stand in square brackets, D forms with d. Residues, ends and D or L forms follow the SMILES beside them. *: point of attachment. X1 = O=C(O)CN1CCN(CC(=O)O)CCN([C@H](CCC(=O)*)C(=O)O)CCN(CC(=O)O)CC1; Benzoyl(4-SiFtBu2) = CC(C)(C)[Si](F)(c1ccc(C(=O)*)cc1)C(C)(C)C; Nle = CCCC[C@H](N)C(=O)O; dDap = NC[C@@H](N)C(=O)O

Assay: Lipophilicity, n-octanol/PBS (pH 7.4) distribution coefficient
Type: physicochemical
Conditions: 177Lu-labelled peptide; n-octanol/PBS pH 7.4; read-out: logD7.4
Method: Lipophilicity (depicted as octanol-phosphate-buffered saline solution (PBS, pH = 7.4) distribution coefficient, logD7.4) was determined via dissolving the ^177Lu-labelled peptide (approx. 1 MBq) in a mixture (1/1, v/v) of n-octanol and PBS. The suspension was vortexed in a reaction vial (1.5 mL) for 3 min at RT and the vial was centrifuged at 9000× […] for 5 min (Biofuge 15, Heraus Sepatech GmbH, Osterode, Germany). 200 μL aliquots of both layers were measured separately in a γ-counter (Perkin Elmer, Waltham, MA, USA). The experiment was repeated at least five times.

SMILES | logD
CCCC[C@H](NC(=O)[C@H](Cc1c[nH]c2ccccc12)NC(=O)CNC(=O)[C@H](Cc1ccc(O)cc1)NC(=O)[C@H](C)NC(=O)[C@@H](CNC(=O)c1ccc([Si](F)(C(C)(C)C)C(C)(C)C)cc1)NC(=O)[C@@H](CCC(=O)O)NC(=O)[C@@H](CCC(=O)O)NC(=O)[C@@H](CCC(=O)O)NC(=O)[C@@H](CCC(=O)O)NC(=O)[C@@H](CCC(=O)O)NC(=O)[C@@H](CCC(=O)O)NC(=O)CC[C@H](C(=O)O)N1CCN(CC(=O)O)CCN(CC(=O)O)CCN(CC(=O)O)CC1)C(=O)N[C@@H](CC(=O)O)C(=O)N[C@@H](Cc1ccccc1)C(N)=O [[nat/177Lu]Lu-(R)-DOTAGA-rhCCK-1, metal not drawn] (X1-[dE][dE][dE][dE][dE][dE][dDap](Benzoyl(4-SiFtBu2))AYGW[Nle]DF-NH2) | -1.71 ± 0.1
CCCC[C@H](NC(=O)[C@H](Cc1c[nH]c2ccccc12)NC(=O)CNC(=O)[C@H](Cc1ccc(O)cc1)NC(=O)[C@H](C)NC(=O)[C@@H](CCC(=O)O)NC(=O)[C@@H](CNC(=O)c1ccc([Si](F)(C(C)(C)C)C(C)(C)C)cc1)NC(=O)[C@@H](CCC(=O)O)NC(=O)[C@@H](CCC(=O)O)NC(=O)[C@@H](CCC(=O)O)NC(=O)[C@@H](CCC(=O)O)NC(=O)[C@@H](CCC(=O)O)NC(=O)CC[C@H](C(=O)O)N1CCN(CC(=O)O)CCN(CC(=O)O)CCN(CC(=O)O)CC1)C(=O)N[C@@H](CC(=O)O)C(=O)N[C@@H](Cc1ccccc1)C(N)=O [[nat/177Lu]Lu-(R)-DOTAGA-rhCCK-2, metal not drawn] (X1-[dE][dE][dE][dE][dE][dDap](Benzoyl(4-SiFtBu2))[dE]AYGW[Nle]DF-NH2) | -1.95 ± 0.09
CCCC[C@H](NC(=O)[C@H](Cc1c[nH]c2ccccc12)NC(=O)CNC(=O)[C@H](Cc1ccc(O)cc1)NC(=O)[C@H](C)NC(=O)[C@@H](CCC(=O)O)NC(=O)[C@@H](CCC(=O)O)NC(=O)[C@@H](CCC(=O)O)NC(=O)[C@@H](CNC(=O)c1ccc([Si](F)(C(C)(C)C)C(C)(C)C)cc1)NC(=O)[C@@H](CCC(=O)O)NC(=O)[C@@H](CCC(=O)O)NC(=O)[C@@H](CCC(=O)O)NC(=O)CC[C@H](C(=O)O)N1CCN(CC(=O)O)CCN(CC(=O)O)CCN(CC(=O)O)CC1)C(=O)N[C@@H](CC(=O)O)C(=O)N[C@@H](Cc1ccccc1)C(N)=O [[nat/177Lu]Lu-(R)-DOTAGA-rhCCK-4, metal not drawn] (X1-[dE][dE][dE][dDap](Benzoyl(4-SiFtBu2))[dE][dE][dE]AYGW[Nle]DF-NH2) | -2.19 ± 0.08
CCCC[C@H](NC(=O)[C@H](Cc1c[nH]c2ccccc12)NC(=O)CNC(=O)[C@H](Cc1ccc(O)cc1)NC(=O)[C@H](C)NC(=O)[C@@H](CCC(=O)O)NC(=O)[C@@H](CCC(=O)O)NC(=O)[C@@H](CCC(=O)O)NC(=O)[C@@H](CCC(=O)O)NC(=O)[C@@H](CNC(=O)c1ccc([Si](F)(C(C)(C)C)C(C)(C)C)cc1)NC(=O)[C@@H](CCC(=O)O)NC(=O)[C@@H](CCC(=O)O)NC(=O)CC[C@H](C(=O)O)N1CCN(CC(=O)O)CCN(CC(=O)O)CCN(CC(=O)O)CC1)C(=O)N[C@@H](CC(=O)O)C(=O)N[C@@H](Cc1ccccc1)C(N)=O [[nat/177Lu]Lu-(R)-DOTAGA-rhCCK-5, metal not drawn] (X1-[dE][dE][dDap](Benzoyl(4-SiFtBu2))[dE][dE][dE][dE]AYGW[Nle]DF-NH2) | -2.67 ± 0.05
CCCC[C@H](NC(=O)[C@H](Cc1c[nH]c2ccccc12)NC(=O)CNC(=O)[C@H](Cc1ccc(O)cc1)NC(=O)[C@H](C)NC(=O)[C@@H](CCC(=O)O)NC(=O)[C@@H](CCC(=O)O)NC(=O)[C@@H](CCC(=O)O)NC(=O)[C@@H](CCC(=O)O)NC(=O)[C@@H](CCC(=O)O)NC(=O)[C@@H](CNC(=O)c1ccc([Si](F)(C(C)(C)C)C(C)(C)C)cc1)NC(=O)[C@@H](CCC(=O)O)NC(=O)CC[C@H](C(=O)O)N1CCN(CC(=O)O)CCN(CC(=O)O)CCN(CC(=O)O)CC1)C(=O)N[C@@H](CC(=O)O)C(=O)N[C@@H](Cc1ccccc1)C(N)=O [[nat/177Lu]Lu-(R)-DOTAGA-rhCCK-6, metal not drawn] (X1-[dE][dDap](Benzoyl(4-SiFtBu2))[dE][dE][dE][dE][dE]AYGW[Nle]DF-NH2) | -2.22 ± 0.08
